From article PMC8623273, “Novel N7-Arylmethyl Substituted Dinucleotide mRNA 5′ cap Analogs: Synthesis and Evaluation as Modulators of Translation” (Pharmaceutics, 2021)
Like-named read-outs stand apart in the source and are kept apart here.

Tests used:
[1] = system: cap-dependent translation in rabbit reticulocyte lysate (RRL); assay: inhibition of cap-dependent translation in rabbit reticulocyte lysate (RRL); type: biochemical
Procedure: After determining the affinity for eIF4E and susceptibility to DcpS, we evaluated the analogs as inhibitors of protein translation in rabbit reticulocyte lysates (RRL). To enable better assessment of how these two factors influenced inhibitory properties, we performed two sets of experiments. In the first set, cap analogs were added to RRL along with luciferase-encoding reporter mRNA followed by a protein activity (luminescence) readout after 1 h, whereas in the second set cap analogs were additionally preincubated in RRL for 1 h prior to addition of mRNA. Based on previously reported findings, we expected that in the second experimental setup, cap analogs susceptible to DcpS would lose their inhibitory potency, whereas compounds resistant to DcpS would remain similarly active.
The ability of the N7-benzyl cap analogues to inhibit cap-dependent translation was assayed in a rabbit reticulocyte lysate (RRL) system. Two sets of experiments were performed. In both variants, in vitro translation reactions (10 μL total volume) contained a tested cap analog (inhibitor) and an in vitro transcribed, ARCA-capped mRNA encoding Gaussia luciferase at 1 μg/mL final concentration. In experimental variant A, cap analogues at concentrations in the range of 0 to 64 μM and mRNA were added to the reaction mixture at the same time. Reactions were incubated at 30 °C for 60 min and then stopped by freezing in liquid nitrogen. In experimental variant B, the cap analogues were added at concentrations in the range of 0 to 160 μM. Reactions were pre-incubated at 30 °C for 60 min prior to addition of mRNA; after addition of mRNA incubation was continuous at 30 °C for 60 min and then stopped by freezing in liquid nitrogen. To detect luminescence from Gaussia luciferase, 50 μL of 10 ng/mL h-coelenterazine (NanoLight, Norman, OK, USA) in PBS was added to 10 μL of RRL and the luminescence was measured with a Synergy H1 (BioTek, Winooski, VT, USA) microplate reader.

eIF4E [2] = target: T1, eIF4E (Mus musculus, UniProt P63073); assay: fluorescence anisotropy (FA) competition assay with eIF4E; type: binding; details: Table S2; for EC50: 25 °C, probe m^7GTP-triazol-FAM 10 nM, eIF4E 100 nM; for Kd: calculated from EC50
T1 sequence (P63073 whole entry): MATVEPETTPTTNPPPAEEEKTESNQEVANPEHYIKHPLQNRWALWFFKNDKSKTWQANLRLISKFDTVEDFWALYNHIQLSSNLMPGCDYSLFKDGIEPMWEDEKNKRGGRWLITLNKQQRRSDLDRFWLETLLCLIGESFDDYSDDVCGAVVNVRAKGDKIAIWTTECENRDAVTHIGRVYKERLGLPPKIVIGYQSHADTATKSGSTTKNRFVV
Excerpt: The KD values determined from the high-throughput assay were in qualitative agreement with data from time-synchronized fluorescence quenching titration, justifying the use of the former for evaluation of the whole set of caps. […] To additionally verify the binding affinity data (especially for 1q and 1r, as mentioned above), we determined the binding affinities for all analogs using another independent assay, based on fluorescence anisotropy. The KD data determined by this method correlated very well with the results reported above (Table S2, Figure S2).
Fractions of the compounds were independently tested using a different method based on fluorescence anisotropy (FA). These experiments were performed on a Synergy™ H1 plate reader in 96-well, black, non-binding assay plates. Each well contained appropriate buffer (50 mM HEPES/KOH pH 7.2, 100 mM KCl, 0.5 mM EDTA i 1 mM DTT), the fluorescent probe m^7GTP-triazol-FAM (10 nM), substrate (in a 2.08-fold dilution, starting from 60 μM) and protein eIF4E (100 nM). The m^7GTP-triazol-FAM was synthesized as describer earlier. All measurements were performed at 25 °C. Determined EC50 values were means ± SD of three independent experiments. The dissociation constants KD were then calculated using the equation described by Nikolovska-Coleska as described earlier.

A549 cells = assay: translational efficiency of mRNAs capped with the analogs in A549 cells (Gaussia luciferase); type: cell-based
Procedure: Finally, we tested the properties of arylmethyl cap analogs as reagents for co-transcriptional mRNA capping. […] Here, we sought to evaluate the translational properties of mRNAs capped with N7-arylmethyl analogs in cultured cells. To that end, the translation properties of transcripts capped with selected analogs were assessed in A549 cells. In vitro transcribed mRNAs encoding Gaussia luciferase, capped with compounds 1a–1k, 1m–1n, and 1p–1r or with reference analogues m^7GpppG and ARCA (m^7GmpppG), were purified via RP HPLC, transfected into A549 cells, and the protein activity (luminescence) was measured using a reporter assay at 72 h post-transfection. The total amount of protein produced over 72 h from each capped RNA was normalized to m^7GpppG RNA (Figure 6 and Figure S4). […] Namely, replacing the N7-methyl group with a benzyl moiety (1a) increased protein production over fivefold in A549 cells compared to m^7GpppG-capped mRNA (Figure 6).
The influence of N7-arylmethylated dinucleotide 5′ cap analogues on the translational properties of HPLC-purified IVT mRNA is shown in Figure S4, Measurements are total protein produced over 72 h by A549 cells transfected with capped mRNAs. Each plot in Figure S4 represents a single experiment consisting of three independent transfections of the cells at the same passage. Bars show mean value normalized to […] ± SD. In the main manuscript, all nine data points from three different cell passages were combined to present cumulative protein expression.

eIF4E [3] = target: T1, eIF4E; assay: time-synchronized fluorescence quenching titration with eIF4E; type: binding; details: 50 mM Hepes pH 7.2, 134.5 mM KCl, 20 °C, read-out: KD Cap-eIF4E ± SD (value in brackets) (converted)
Excerpt: High affinity for eIF4E is a desirable feature of cap analogs designed for modulating translation, either as small molecules or as a part of mRNA. Thus, we studied how different substituents at the N7-position affected eIF4E-cap interaction. To this end, we first determined the affinity of m^7GpppG and Bn^7GpppG (1a) using time-synchronized fluorescence quenching titration, a very precise and well-established, but low-throughput method. Next, to evaluate the whole set of the synthesized compounds (1a–1r), we used a high-throughput competitive-binding assay based on a pyrene-labeled fluorescent probe. From this assay we determined relative affinities of the compounds represented by half-effective concentrations (EC50) (Figure 3A–C), which were then used to calculate dissociation constant (KD) values for cap analog–eIF4E complexes using previously reported equations (Table 2, Figure 3D).

[4] = system: translation in vitro (RRL); parameters: method as in PMID 15317978; details: cap incorporated into mRNA; cited from earlier work
[5] = RRL, cap analog and mRNA added at the same time (no pre-incubation), 60 min, 30 °C, read-out: Translation Inhibition IC50
[6] = cap analog incubated in RRL for 1 h prior to adding mRNA, read-out: Translation Inhibition IC50 (value in brackets) (converted)

| Structure (SMILES) | IC50 [1, 5] [µM] | EC50 (eIF4E [2]) [µM] | Kd (eIF4E [2]) [µM] | IC50 [1, 6] [µM] | increase of protein production compared to ARCA (A549 cells; A549 cells, 72 h) [fold] | Rel. Protein Expression (A549 cells; mRNA capped with the analog, Gaussia luciferase activity in A549 cells 72 h post-transfection, normalized to m^7GpppG RNA) | Kd (eIF4E [3]) [µM] | change of protein expression of ARCA analog compared to 2'-O-unmethylated counterpart (1q vs 1a, 1r vs 1h) (A549 cells; A549 cells, 72 h) | translation efficiency in vitro relative to m^7GpppG-capped mRNAs [4] | increase of protein production compared to m^7GpppG-capped mRNA (A549 cells; A549 cells, 72 h) |
| --- | --- | --- | --- | --- | --- | --- | --- | --- | --- | --- |
| Nc1nc(O)c2c(n1)n([C@@H]1O[C@H](COP(=O)(O)OP(=O)([O-])OP(=O)(O)OC[C@H]3O[C@@H](n4cnc5c(=O)[nH]c(N)nc54)[C@H](O)[C@@H]3O)[C@@H](O)[C@H]1O)c[n+]2Cc1ccc([N+](=O)[O-])cc1 [1n, 4-NO2-Bn^7GpppG] | 28.2 ± 7.5 | 0.52 ± 0.12 | 0.168 ± 0.043 |  |  |  |  |  |  |  |
| Nc1nc(O)c2c(n1)n([C@@H]1O[C@H](COP(=O)(O)OP(=O)([O-])OP(=O)(O)OC[C@H]3O[C@@H](n4cnc5c(=O)[nH]c(N)nc54)[C@H](O)[C@@H]3O)[C@@H](O)[C@H]1O)c[n+]2Cc1ccc(F)cc1 [1g, 4-F-Bn^7GpppG] | 6 ± 0.9 | 0.24 ± 0.08 | 0.064 ± 0.031 | 21.4 |  |  |  |  |  |  |
| Nc1nc(O)c2c(n1)n([C@@H]1O[C@H](COP(=O)(O)OP(=O)([O-])OP(=O)(O)OC[C@H]3O[C@@H](n4cnc5c(=O)[nH]c(N)nc54)[C@H](O)[C@@H]3O)[C@@H](O)[C@H]1O)c[n+]2Cc1ccc(Cl)cc1 [1h, 4-Cl-Bn^7GpppG] | 18.7 ± 3 | 0.34 ± 0.14 | 0.102 ± 0.053 | 18.7 ± 3.6 | 2.5 |  |  |  |  |  |
| Nc1nc(O)c2c(n1)n([C@@H]1O[C@H](COP(=O)(O)OP(=O)([O-])OP(=O)(O)OC[C@H]3O[C@@H](n4cnc5c(=O)[nH]c(N)nc54)[C@H](O)[C@@H]3O)[C@@H](O)[C@H]1O)c[n+]2Cc1ccc(Br)cc1 [1i, 4-Br-Bn^7GpppG] | 6.4 ± 1 | 0.21 ± 0.01 | 0.052 ± 0.003 | 22.2 |  |  |  |  |  |  |
| CC(C)c1ccc(C[n+]2cn([C@@H]3O[C@H](COP(=O)(O)OP(=O)([O-])OP(=O)(O)OC[C@H]4O[C@@H](n5cnc6c(=O)[nH]c(N)nc65)[C@H](O)[C@@H]4O)[C@@H](O)[C@H]3O)c3nc(N)nc(O)c32)cc1 [1e, 4-iPrBn^7GpppG] | 15.2 ± 3.1 | 1.3 ± 0.09 | 0.444 ± 0.033 |  |  |  |  |  |  |  |
| Cn1c[n+]([C@@H]2O[C@H](COP(=O)(O)OP(=O)([O-])OP(=O)(O)OC[C@H]3O[C@@H](n4cnc5c(=O)[nH]c(N)nc54)[C@H](O)[C@@H]3O)[C@@H](O)[C@H]2O)c2nc(N)[nH]c(=O)c21 [m^7GpppG, reference compound] | 11.4 ± 2.4 | 0.41 ± 0.01 | 0.127 ± 0.005 | 30.1 |  | 1.0 | 0.16 |  |  |  |
| Nc1nc(O)c2c(n1)n([C@@H]1O[C@H](COP(=O)(O)OP(=O)([O-])OP(=O)(O)OC[C@H]3O[C@@H](n4cnc5c(=O)[nH]c(N)nc54)[C@H](O)[C@@H]3O)[C@@H](O)[C@H]1O)c[n+]2Cc1ccc(F)c(F)c1 [1k, 3,4-di-F-Bn^7GpppG] | 8.2 ± 1.1 | 0.88 ± 0.08 | 0.301 ± 0.03 | 21.4 |  |  |  |  |  |  |
| Nc1nc(O)c2c(n1)n([C@@H]1O[C@H](COP(=O)(O)OP(=O)([O-])OP(=O)(O)OC[C@H]3O[C@@H](n4cnc5c(=O)[nH]c(N)nc54)[C@H](O)[C@@H]3O)[C@@H](O)[C@H]1O)c[n+]2Cc1ccc(C(F)(F)F)cc1 [1l, 4-CF3-Bn^7GpppG] | 9.7 ± 2 | 0.59 ± 0.04 | 0.194 ± 0.017 | 40 |  |  |  |  |  |  |
| CO[C@@H]1[C@H](O)[C@@H](COP(=O)(O)OP(=O)([O-])OP(=O)(O)OC[C@H]2O[C@@H](n3cnc4c(=O)[nH]c(N)nc43)[C@H](O)[C@@H]2O)O[C@H]1n1c[n+](Cc2ccc(Cl)cc2)c2c(O)nc(N)nc21 [1r, 4-Cl-Bn^7GmpppG] | 6 ± 0.9 | 0.19 ± 0.02 | 0.045 ± 0.007 |  |  |  |  | decreased the protein expression by twofold |  |  |
| Cc1cccc(C[n+]2cn([C@@H]3O[C@H](COP(=O)(O)OP(=O)([O-])OP(=O)(O)OC[C@H]4O[C@@H](n5cnc6c(=O)[nH]c(N)nc65)[C@H](O)[C@@H]4O)[C@@H](O)[C@H]3O)c3nc(N)nc(O)c32)c1 [1c, 3-MeBn^7GpppG] | 6.6 ± 0.8 | 0.67 ± 0.02 | 0.222 ± 0.008 | 8.2 |  |  |  |  |  |  |
| Nc1nc(O)c2c(n1)n([C@@H]1O[C@H](COP(=O)(O)OP(=O)([O-])OP(=O)(O)OC[C@H]3O[C@@H](n4cnc5c(=O)[nH]c(N)nc54)[C@H](O)[C@@H]3O)[C@@H](O)[C@H]1O)c[n+]2Cc1ccccc1 [1a, Bn^7GpppG] | 7.4 ± 1.4 | 0.27 ± 0.02 | 0.074 ± 0.023 | 9.6 |  |  | 0.107 |  | almost twofold higher | over fivefold |
| CO[C@@H]1[C@H](O)[C@@H](COP(=O)(O)OP(=O)([O-])OP(=O)(O)OC[C@H]2O[C@@H](n3cnc4c(=O)[nH]c(N)nc43)[C@H](O)[C@@H]2O)O[C@H]1n1c[n+](Cc2ccccc2)c2c(O)nc(N)nc21 [1q, Bn^7GmpppG] | 3.7 ± 0.5 | 0.18 ± 0.03 | 0.04 ± 0.011 | 8.2 |  |  |  | additional twofold increase |  |  |
